Data reported in US9896466B2 (Smart Brain S.R.O., priority 2013, dated 2018).

What was measured:
mitochondrial potential = assay: Decrease in mitochondrial potential; assay type: cell-based; settings: 5 μM, within 1 h
[1] = test system: MCF7 sublines differing in HER2 levels; assay: Formation of reactive oxygen species (ROS); assay type: cell-based, human; settings: 5 μM, 1 h exposure
Description: A property typically associated a number of mitocans is their ability to increase oxidative stress (formation of reactive oxygen species, ROS), selectively in cancer cells, especially associated with their action on mitochondrial complexes participating with oxidative phosphorylation. […] We tested formation of ROS also for MitoTAX.

mitochondrial complex I = assay: Respiration via mitochondrial complexes I and II, Oxygraf; assay type: cell-based, human; settings: MCF7 cells, respiration at increasing doses
Description: Respiration (oxygen consumption linked with ATP formation) is related to 10^6 cells and is shown as a relative value with the beginning level of respiration marked with the relative value of 1.

MCF7HER2− = settings: FIG. 4, survival, crystal violet
Description: MitoTAX prepared according to Example 6 was tested for its effect on breast cancer cell lines. Lines with different levels of HER2 protein expression and oestrogen receptor α. (ERα) were used. The cell line MCF7 features a relatively low expression of the HER2 protein. For the testing of killing of breast cancer cells with different HER2 protein levels by MitoTAX, we prepared HER2^− and HER^+ MCF7 cells. MCF7 cells were transfected with the vector with a ‘non-silencing’ sequence (NS), with a ‘short hairpin’ sequence attenuating the expression of HER2 (sh) and with the vector with a gene for HER2. […] In the subsequent work, the sublines NS, Sh1 26 (clone 26) and +11 (clone 11) were used.
The individual values were determined from the survival curves of cells at various concentrations of both substances using the crystal violet method.

oestrogen receptor ERα = assay: ERα expression by real-time PCR; assay type: cell-based; settings: 1 μM

Row | SMILES | reduction of mitochondrial potential (mitochondrial potential) | generation of ROS [1] | concentration at which complex I is inhibited preferably to complex II (mitochondrial complex I) | response of line with reduced HER2 expression (clone 26) (MCF7HER2−) | reduction of ERα expression (oestrogen receptor ERα)
1 | N#CC(C#N)=NNc1cccc(Cl)c1 [CCCP] | reduces the mitochondrial potential to its basal value | – | – | – | –
2 | CC/C(=C(\c1ccccc1)c1ccc(OCCN(C)C)cc1)c1ccccc1 [TAX, tamoxifen] | – | markedly less effective | exceeding 20 μM | exactly opposite | ineffective
